Data published in patent US10167297B2, “Substituted pyridine compounds having herbicidal activity” (BASF SE, priority 2014, dated 2019).

How the values were obtained:
Format in all cases: in vivo
Zea mays [1] = experiment: greenhouse post-emergence herbicidal activity on crop plant corn (use examples); settings: ZEAMX (corn, crop plant), scale 0 to 100; for plant injury at 31 g/ha: 0.031 kg/ha; for plant injury at 250 g/ha: 0.25 kg/ha; for plant injury at 125 g/ha: 0.125 kg/ha
Description: (§1) The seeds of the test plants were sown separately for each species. For the pre-emergence treatment, the active ingredients, which had been suspended or emulsified in water, were applied directly after sowing by means of finely distributing nozzles. The containers were irrigated gently to promote germination and growth and subsequently covered with transparent plastic hoods until the plants had rooted. This cover caused uniform germination of the test plants, unless this had been impaired by the active ingredients. For the post-emergence treatment, the test plants were first grown to a height of 3 to 15 cm, depending on the plant habit, and only then treated with the active ingredients which had been suspended or emulsified in water. For this purpose, the test plants were either sown directly and grown in the same containers, or they were first grown separately as seedlings and transplanted into the test containers a few days prior to treatment. Depending on the species, the plants were kept at 10-25° C. or 20-35° C., respectively. The test period extended over 2 to 4 weeks. During this time, the plants were tended, and their response to the individual treatments was evaluated. Evaluation was carried out using a scale from 0 to 100. 100 means no emergence of the plants, or complete destruction of at least the aerial moieties, and 0 means no damage, or normal course of growth. A good herbicidal activity is given at values of at least 70 and a very good herbicidal activity is given at values of at least 85. The plants used in the greenhouse experiments were of the following species: [table]

Chenopodium album = experiment: greenhouse post-emergence herbicidal activity (use examples); settings: CHEAL, scale 0 to 100
Description: as §1

Setaria viridis [2] = experiment: as above; settings: SETVI, scale 0 to 100
Description: as §1

Echinocloa crus-galli [3] = experiment: as above; settings: Echinochloa crus-galli, ECHCG, scale 0 to 100; for pest or weed control at 31 g/ha: 0.031 kg/ha; for pest or weed control at 250 g/ha: 0.25 kg/ha; for pest or weed control at 125 g/ha: 0.125 kg/ha
Description: as §1

Amaranthus retroflexus = experiment: as above; settings: AMARE, scale 0 to 100
Description: as §1

Zea mays [4] = experiment: comparative greenhouse post-emergence herbicidal activity on crop plant corn; settings: ZEAMX (corn, crop plant), 20 days, scale 0 to 100
Description: (§2) The herbicidal activity of the compounds I-5 (N-[2,6-dichloro-3-(8-hydroxy-6,6-dioxo-5H-thiopyrano[4,3-b]pyridin-7-yl)phenyl]-N-methyl-acetamide) and 1-19 (Methyl N-[2,6-dichloro-3-(8-hydroxy-5,5-dimethyl-6,6-dioxo-thiopyrano[4,3-b]pyridin-7-yl)phenyl]-N-methyl-carbamate) according to this invention was tested in comparison with compound I-5 disclosed on page 147 of WO 2012/084755 A1 (not of the invention). These comparative experiments were performed in greenhouse by using the following procedure:
(§3) The culture containers used were plastic flowerpots containing loamy sand with approximately 3.0% of humus as the substrate. The seeds of the test plants were sown separately for each species.
(§4) For the post-emergence treatment, the test plants were first grown to a height of 3 to 15 cm, depending on the plant habit, and only then treated with the active ingredients which had been suspended or emulsified in water using a volume of 375 I/ha and 1% of an Adjuvant. For this purpose, the test plants were either sown directly and grown in the same containers, or they were first grown separately as seedlings and transplanted into the test containers a few days prior to treatment.
(§5) Depending on the species, the plants were kept at 10-25° C. (cold season grasses) or 20-35° C. (warm season grasses), respectively.
(§6) The test period extended over 20 days. During this time, the plants were tended, and their response to the individual treatments was evaluated.
(§7) Evaluation was carried out using a scale from 0 to 100. 100 means complete destruction of at least the aerial moieties, and 0 means no damage, or normal course of growth. A good herbicidal activity is given at values of at least 70 and a very good herbicidal activity is given at values of at least 85.
(§8) The plants used in the greenhouse experiments were of the following species:
(§9) The application rates in the post-emergence treatment were 0.1, 0.05 and 0.025 kg/ha, respectively.

Ambrosia artimisifolio = experiment: comparative greenhouse post-emergence herbicidal activity; settings: AMBEL, 20 days, scale 0 to 100
Description: as §2, §3, §4, §5, §6, §7, §8, §9

Polygonum convolvulus = experiment: as above; settings: POLCO, 20 days, scale 0 to 100
Description: as §2, §3, §4, §5, §6, §7, §8, §9

Abuthilon avicennae = experiment: as above; settings: ABUTH, 20 days, scale 0 to 100
Description: as §2, §3, §4, §5, §6, §7, §8, §9

Digitaria sanguine = experiment: as above; settings: DIGSA, 20 days, scale 0 to 100
Description: as §2, §3, §4, §5, §6, §7, §8, §9

Avena Fatua = experiment: as above; settings: AVEFA, 20 days, scale 0 to 100
Description: as §2, §3, §4, §5, §6, §7, §8, §9

Bromus steliris = experiment: as above; settings: BROST, 20 days, scale 0 to 100
Description: as §2, §3, §4, §5, §6, §7, §8, §9

Lolium Multiflori = experiment: as above; settings: LOLMU, 20 days, scale 0 to 100
Description: as §2, §3, §4, §5, §6, §7, §8, §9

Setaria viridis [5] = experiment: as above; settings: SETVI, 20 days, scale 0 to 100
Description: as §2, §3, §4, §5, §6, §7, §8, §9

Echinocloa crus-galli [6] = experiment: as above; settings: ECHCG, 20 days, scale 0 to 100
Description: as §2, §3, §4, §5, §6, §7, §8, §9

Structure (SMILES): CC(=O)N(C)c1c(Cl)ccc(C2=C(OC(=O)C(C)(C)C)c3ncc(F)cc3CS2(=O)=O)c1Cl [Compound I-12, [7-[3-[acetyl(methyl)amino]-2,4-dichloro-phenyl]-3-fluoro-6,6-dioxo-5H-thiopyrano[4,3-b]pyridin-8-yl] 2,2-dimethylpropanoate]
- plant injury at 31 g/ha (Zea mays [1]): 15%
- Herbicidal activity (Chenopodium album; 0.031 kg/ha): 90
- Herbicidal activity (Setaria viridis [2]; 0.031 kg/ha): 75
- pest or weed control at 31 g/ha (Echinocloa crus-galli [3]): 85%

Structure (SMILES): O=C1CCCN1c1c(Cl)ccc(C2=C(O)c3ncccc3CS2(=O)=O)c1Cl [Compound I-1, 1-[2,6-dichloro-3-(8-hydroxy-6,6-dioxo-5H-thiopyrano[4,3-b]pyridin-7-yl)phenyl]pyrrolidin-2-one]
- plant injury at 250 g/ha (Zea mays [1]): 0%
- Herbicidal activity (Chenopodium album; 0.25 kg/ha): 100
- Herbicidal activity (Amaranthus retroflexus; 0.25 kg/ha): 100
- pest or weed control at 250 g/ha (Echinocloa crus-galli [3]): 100%

Structure (SMILES): CC(=O)N(C)c1c(Cl)ccc(C2=C(O)c3ncc(F)cc3C(C)(C)S2(=O)=O)c1Cl [Compound I-14, N-[2,6-dichloro-3-(3-fluoro-8-hydroxy-5,5-dimethyl-6,6-dioxo-thiopyrano[4,3-b]pyridin-7-yl)phenyl]-N-methyl-acetamide]
- plant injury at 125 g/ha (Zea mays [1]): 30%
- Herbicidal activity (Amaranthus retroflexus; 0.125 kg/ha): 98
- Herbicidal activity (Setaria viridis [2]; 0.125 kg/ha): 100
- pest or weed control at 125 g/ha (Echinocloa crus-galli [3]): 98%

Structure (SMILES): CC(=O)N(C)c1c(Cl)ccc(C2=C(O)c3ncccc3C(C)(C)S2(=O)=O)c1Cl [Compound I-6, N-[2,6-dichloro-3-(8-hydroxy-5,5-dimethyl-6,6-dioxo-thiopyrano[4,3-b]pyridin-7-yl)phenyl]-N-methyl-acetamide]
- plant injury at 60 g/ha (Zea mays [1]; 0.060 kg/ha): 30%
- Herbicidal activity (Setaria viridis [2]; 0.060 kg/ha): 90
- pest or weed control at 60 g/ha (Echinocloa crus-galli [3]; 0.060 kg/ha): 90%

Structure (SMILES): CC(=O)N(C)c1c(Cl)ccc(C2=C(OC(=O)C(C)(C)C)c3ncccc3CS2(=O)=O)c1Cl [Compound I-7, [7-[3-[acetyl(methyl)amino]-2,4-dichloro-phenyl]-6,6-dioxo-5H-thiopyrano[4,3-b]pyridin-8-yl] 2,2-dimethylpropanoate]
- plant injury at 250 g/ha (Zea mays [1]): 20%
- Herbicidal activity (Chenopodium album; 0.25 kg/ha): 100
- Herbicidal activity (Amaranthus retroflexus; 0.25 kg/ha): 95
- pest or weed control at 250 g/ha (Echinocloa crus-galli [3]): 98%

Structure (SMILES): CC(=O)N(C)c1c(Cl)ccc(C2=C(O)c3ncc(F)cc3CS2(=O)=O)c1Cl [Compound I-11, N-[2,6-dichloro-3-(3-fluoro-8-hydroxy-6,6-dioxo-5H-thiopyrano[4,3-b]pyridin-7-yl)phenyl]-N-methyl-acetamide]
- plant injury at 31 g/ha (Zea mays [1]): 15%
- Herbicidal activity (Chenopodium album; 0.031 kg/ha): 90
- Herbicidal activity (Setaria viridis [2]; 0.031 kg/ha): 90
- pest or weed control at 31 g/ha (Echinocloa crus-galli [3]): 90%

Structure (SMILES): CC(=O)N(C)c1c(Cl)ccc(C2=C(OC(=O)C(C)(C)C)c3ncccc3C(C)(C)S2(=O)=O)c1Cl [Compound I-8, [7-[3-[acetyl(methyl)amino]-2,4-dichloro-phenyl]-5,5-dimethyl-6,6-dioxo-thiopyrano[4,3-b]pyridin-8-yl] 2,2-dimethylpropanoate]
- plant injury at 125 g/ha (Zea mays [1]): 30%
- Herbicidal activity (Chenopodium album; 0.125 kg/ha): 100
- Herbicidal activity (Amaranthus retroflexus; 0.125 kg/ha): 98
- pest or weed control at 125 g/ha (Echinocloa crus-galli [3]): 98%

Structure (SMILES): CC(=O)N(C)c1c(Cl)ccc(C2=C(OC(=O)C(C)(C)C)c3ncc(F)cc3C(C)(C)S2(=O)=O)c1Cl [Compound I-13, [7-[3-[acetyl(methyl)amino]-2,4-dichloro-phenyl]-3-fluoro-5,5-dimethyl-6,6-dioxo-thiopyrano[4,3-b]pyridin-8-yl] 2,2-dimethylpropanoate]
- plant injury at 125 g/ha (Zea mays [1]): 15%
- Herbicidal activity (Amaranthus retroflexus; 0.125 kg/ha): 90
- Herbicidal activity (Setaria viridis [2]; 0.125 kg/ha): 85
- pest or weed control at 125 g/ha (Echinocloa crus-galli [3]): 95%

Structure (SMILES): CC(=O)N(C)c1c(Cl)ccc(C2=C(O)c3ncccc3CS2(=O)=O)c1Cl [Compound I-5, N-[2,6-dichloro-3-(8-hydroxy-6,6-dioxo-5H-thiopyrano[4,3-b]pyridin-7-yl)phenyl]-N-methyl-acetamide]
- Herbicidal activity (Zea mays [4]; 0.025 kg/ha): 15
- Herbicidal activity (Zea mays [4]; 0.05 kg/ha): 45
- plant injury at 125 g/ha (Zea mays [1]): 10%
- Herbicidal activity (Chenopodium album; 0.125 kg/ha): 98
- Herbicidal activity (Amaranthus retroflexus; 0.125 kg/ha): 98
- pest or weed control at 125 g/ha (Echinocloa crus-galli [3]): 95%
- Herbicidal activity (Ambrosia artimisifolio; 0.025 kg/ha): 90
- Herbicidal activity (Ambrosia artimisifolio; 0.05 kg/ha): 100
- Herbicidal activity (Ambrosia artimisifolio; 0.1 kg/ha): 95
- Herbicidal activity (Polygonum convolvulus; 0.025 kg/ha): 35
- Herbicidal activity (Polygonum convolvulus; 0.05 kg/ha): 45
- Herbicidal activity (Polygonum convolvulus; 0.1 kg/ha): 80
- Herbicidal activity (Abuthilon avicennae; 0.025 kg/ha): 70
- Herbicidal activity (Abuthilon avicennae; 0.05 kg/ha): 80
- Herbicidal activity (Abuthilon avicennae; 0.1 kg/ha): 90
- Herbicidal activity (Digitaria sanguine; 0.025 kg/ha): 90
- Herbicidal activity (Digitaria sanguine; 0.05 kg/ha): 95
- Herbicidal activity (Digitaria sanguine; 0.1 kg/ha): 100
- Herbicidal activity (Avena Fatua; 0.025 kg/ha): 55
- Herbicidal activity (Avena Fatua; 0.05 kg/ha): 85
- Herbicidal activity (Avena Fatua; 0.1 kg/ha): 90
- Herbicidal activity (Bromus steliris; 0.025 kg/ha): 98
- Herbicidal activity (Bromus steliris; 0.05 kg/ha): 98
- Herbicidal activity (Bromus steliris; 0.1 kg/ha): 98
- Herbicidal activity (Lolium Multiflori; 0.025 kg/ha): 25
- Herbicidal activity (Lolium Multiflori; 0.05 kg/ha): 55
- Herbicidal activity (Lolium Multiflori; 0.1 kg/ha): 80
- Herbicidal activity (Setaria viridis [5]; 0.025 kg/ha): 90
- Herbicidal activity (Setaria viridis [5]; 0.05 kg/ha): 90
- Herbicidal activity (Setaria viridis [5]; 0.1 kg/ha): 90
- Herbicidal activity (Echinocloa crus-galli [6]; 0.025 kg/ha): 90
- Herbicidal activity (Echinocloa crus-galli [6]; 0.05 kg/ha): 100
- Herbicidal activity (Echinocloa crus-galli [6]; 0.1 kg/ha): 100
